pIC50: −log10 of the molar value.
Tested on: 991263-137-R1-J2-PDC complex spheroid viability
Assay: Anticancer human tumor 991263-137-R1-J2-PDC patient-derived colon adenocarcinoma cell line growth inhibition [POLQ]
Conditions: for pIC50: curve of first compound; for viability, T/C: stronger effect = lower value
In short: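 Growth inhibition in 3D: complex spheroids (tumor PDC, HUVEC, MSC) treated with POLQ inhibitor combinations; where Cmax unknown, highest tested concentration 10 microM, except SN-38 at 1 microM.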

[1] = second compound 0.0316 µM, first compound 0.0316 µM
[2] = second compound 0.0316 µM, first compound 0.1 µM
[3] = second compound 0.0316 µM, first compound 0.316 µM
[4] = second compound 0.0316 µM, first compound 1 µM
[5] = second compound 0.0316 µM, first compound 3.16 µM
[6] = second compound 0.0316 µM, first compound 10 µM
[7] = second compound 0.1 µM, first compound 0.0316 µM
[8] = second compound 0.1 µM, first compound 0.1 µM
[9] = second compound 0.1 µM, first compound 0.316 µM
[10] = second compound 0.1 µM, first compound 1 µM
[11] = second compound 0.1 µM, first compound 3.16 µM
[12] = second compound 0.1 µM, first compound 10 µM
[13] = second compound 0.316 µM, first compound 0.0316 µM
[14] = second compound 0.316 µM, first compound 0.1 µM
[15] = second compound 0.316 µM, first compound 0.316 µM
[16] = second compound 0.316 µM, first compound 1 µM
[17] = second compound 0.316 µM, first compound 3.16 µM
[18] = second compound 0.316 µM, first compound 10 µM
[19] = second compound 1 µM, first compound 0.0316 µM
[20] = second compound 1 µM, first compound 0.1 µM
[21] = second compound 1 µM, first compound 0.316 µM
[22] = second compound 1 µM, first compound 1 µM
[23] = second compound 1 µM, first compound 3.16 µM
[24] = second compound 1 µM, first compound 10 µM
[25] = second compound 3.16 µM, first compound 0.0316 µM
[26] = second compound 3.16 µM, first compound 0.1 µM
[27] = second compound 3.16 µM, first compound 0.316 µM
[28] = second compound 3.16 µM, first compound 1 µM
[29] = second compound 3.16 µM, first compound 3.16 µM
[30] = second compound 3.16 µM, first compound 10 µM
[31] = second compound 10 µM, first compound 0.0316 µM
[32] = second compound 10 µM, first compound 0.1 µM
[33] = second compound 10 µM, first compound 0.316 µM
[34] = second compound 10 µM, first compound 1 µM
[35] = second compound 10 µM, first compound 3.16 µM
[36] = second compound 10 µM, first compound 10 µM
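Also: spheroids exposed to compounds for 7 days before readout.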
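For viability, T/C in this document: 100% = DMSO vehicle control viability.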

In the case of CC1COCCN1c1cc(C2(S(C)(=N)=O)CC2)nc(-c2ccnc3[nH]ccc23)n1 (stereo unspecified) + Nc1ccc(C#CCN(C(=O)Cc2ncc(C(F)(F)F)cc2C(F)(F)F)c2ccc(F)cc2)nn1, the pIC50 (second compound 0.0316 µM) was < 5.00, the pIC50 (second compound 0.1 µM) was < 5.00 and the pIC50 (second compound 0.316 µM) was < 5.00. The pIC50 (second compound 1 µM) was < 5.00, the pIC50 (second compound 3.16 µM) was < 5.00 and the pIC50 (second compound 10 µM) was < 5.00. For the same compound, the viability, T/C [1] was 100%, the viability, T/C [2] was 104% and the viability, T/C [3] was 108%. The viability, T/C [4] was 109%, the viability, T/C [5] was 97.5% and the viability, T/C [6] was 86%. For the same compound, the viability, T/C [7] was 114%, the viability, T/C [8] was 110% and the viability, T/C [9] was 93.9%. For the same compound, the viability, T/C [10] was 105%, the viability, T/C [11] was 108% and the viability, T/C [12] was 97.2%. It also gave a viability, T/C [13] of 97.7%, a viability, T/C [14] of 103% and a viability, T/C [15] of 110%. It also gave a viability, T/C [16] of 103%, a viability, T/C [17] of 108% and a viability, T/C [18] of 89.2%. For the same compound, the viability, T/C [19] was 119%, the viability, T/C [20] was 109% and the viability, T/C [21] was 106%. The viability, T/C [22] was 106%, the viability, T/C [23] was 104% and the viability, T/C [24] was 85.1%. For the same compound, the viability, T/C [25] was 101%, the viability, T/C [26] was 102% and the viability, T/C [27] was 102%. For the same compound, the viability, T/C [28] was 97.5%, the viability, T/C [29] was 101% and the viability, T/C [30] was 83.9%. The viability, T/C [31] was 109%, the viability, T/C [32] was 106% and the viability, T/C [33] was 115%. The viability, T/C [34] was 99.5%, the viability, T/C [35] was 93.4% and the viability, T/C [36] was 63.6%.

With O=C(c1cc(Cc2n[nH]c(=O)c3ccccc23)ccc1F)N1CCN(C(=O)C2CC2)CC1 + Nc1ccc(C#CCN(C(=O)Cc2ncc(C(F)(F)F)cc2C(F)(F)F)c2ccc(F)cc2)nn1 the pIC50 (second compound 0.0316 µM) was < 5.00, the pIC50 (second compound 0.1 µM) was < 5.00 and the pIC50 (second compound 0.316 µM) was < 5.00. For the same compound, the pIC50 (second compound 1 µM) was < 5.00, the pIC50 (second compound 3.16 µM) was < 5.00 and the pIC50 (second compound 10 µM) was < 5.00. The viability, T/C [1] was 105%, the viability, T/C [2] was 101% and the viability, T/C [3] was 90.1%. The viability, T/C [4] was 98.5%, the viability, T/C [5] was 98.2% and the viability, T/C [6] was 99.8%. For the same compound, the viability, T/C [7] was 101%, the viability, T/C [8] was 97.4% and the viability, T/C [9] was 90.3%. It also gave a viability, T/C [10] of 96.1%, a viability, T/C [11] of 110% and a viability, T/C [12] of 90%. It also gave a viability, T/C [13] of 106%, a viability, T/C [14] of 104% and a viability, T/C [15] of 93.8%. For the same compound, the viability, T/C [16] was 97%, the viability, T/C [17] was 101% and the viability, T/C [18] was 97.2%. It also gave a viability, T/C [19] of 104%, a viability, T/C [20] of 96.1% and a viability, T/C [21] of 94.3%. It also gave a viability, T/C [22] of 90.3%, a viability, T/C [23] of 105% and a viability, T/C [24] of 90.4%. For the same compound, the viability, T/C [25] was 103%, the viability, T/C [26] was 103% and the viability, T/C [27] was 95.4%. The viability, T/C [28] was 100%, the viability, T/C [29] was 105% and the viability, T/C [30] was 105%. For the same compound, the viability, T/C [31] was 95.5%, the viability, T/C [32] was 93.6% and the viability, T/C [33] was 104%. It also gave a viability, T/C [34] of 96.7%, a viability, T/C [35] of 97.1% and a viability, T/C [36] of 102%.

In the case of CC1COCCN1c1cc(-c2ccnn2C)c2ccnc(-c3ccn[nH]3)c2n1 (stereo unspecified) + COC1C(OC(N)=O)C(O)C(Oc2ccc3c(O)c(NC(=O)c4ccc(O)c(CC=C(C)C)c4)c(=O)oc3c2C)OC1(C)C, the pIC50 (second compound 0.0316 µM) was 6.13, the pIC50 (second compound 0.1 µM) was 6.15 and the pIC50 (second compound 0.316 µM) was 6.17. The pIC50 (second compound 1 µM) was 6.12, the pIC50 (second compound 3.16 µM) was 6.16 and the pIC50 (second compound 10 µM) was 5.87. For the same compound, the viability, T/C [1] was 92.3%, the viability, T/C [2] was 95.7% and the viability, T/C [3] was 76.7%. It also gave a viability, T/C [4] of 40.9%, a viability, T/C [5] of 33.4% and a viability, T/C [6] of 30%. For the same compound, the viability, T/C [7] was 98.2%, the viability, T/C [8] was 101% and the viability, T/C [9] was 76%. For the same compound, the viability, T/C [10] was 40.2%, the viability, T/C [11] was 23.1% and the viability, T/C [12] was 31.7%. For the same compound, the viability, T/C [13] was 97.6%, the viability, T/C [14] was 108% and the viability, T/C [15] was 63.3%. For the same compound, the viability, T/C [16] was 46%, the viability, T/C [17] was 26.4% and the viability, T/C [18] was 23.4%. The viability, T/C [19] was 89.6%, the viability, T/C [20] was 104% and the viability, T/C [21] was 75.7%. It also gave a viability, T/C [22] of 43.1%, a viability, T/C [23] of 35.7% and a viability, T/C [24] of 29.9%. It also gave a viability, T/C [25] of 88.4%, a viability, T/C [26] of 101% and a viability, T/C [27] of 69.5%. It also gave a viability, T/C [28] of 42.2%, a viability, T/C [29] of 33% and a viability, T/C [30] of 26.9%. The viability, T/C [31] was 82.1%, the viability, T/C [32] was 95% and the viability, T/C [33] was 85.7%. It also gave a viability, T/C [34] of 54.9%, a viability, T/C [35] of 36.9% and a viability, T/C [36] of 30.8%.
